Key:
[1] = Selectivity index, ratio of CC50 for cytotoxicity in BHK cells to IC50 for antiviral activity against Dengue virus 1 DGL2 replicon infected in BHK cells; format: toxicity, cell-based; conditions: hamster, read-out: Ratio CC50/IC50
[2] = Cytotoxicity in BHK cells assessed as reduction in cell viability incubated for 72 hrs by cell count reagent SF based microplate spectrophotometry; conditions: cricetinae
dengue virus type 1 = experiment: Antiviral activity against Dengue virus 1 DGL2 replicon infected in BHK cells assessed as inhibition of viral replicon RNA replication incubated for 72 hrs by Gaussia-luciferase reporter gene assay; format: functional, organism-based

| SMILES | selectivity ratio [1] | CC50 at 72 h [2] [µM] | IC50 (dengue virus type 1) [µM] |
| --- | --- | --- | --- |
| C#Cc1c(C#N)ncn1[C@@H]1[Se][C@H](CO)[C@@H](O)[C@H]1O | > 2.24 | > 50 | 22.3 |
| C#Cc1c(C(N)=O)ncn1[C@@H]1S[C@H](CO)[C@@H](O)[C@H]1O | > 3.42 | > 50 | 14.6 |
| C#Cc1c(C#N)ncn1[C@@H]1O[C@H](CO)[C@@H](O)[C@H]1O | 7.25 | 3.99 | 0.55 |
| C#Cc1c(C(N)=O)ncn1[C@@H]1O[C@H](CO)[C@@H](O)[C@H]1O | 4.59 | 1.24 | 0.27 |
| NC(=O)c1ncn([C@@H]2O[C@H](CO)[C@@H](O)[C@H]2O)n1 [RIBAVIRIN] | 7.35 | 49 | 6.66 |
| C#Cc1c(C#N)ncn1[C@@H]1S[C@H](CO)[C@@H](O)[C@H]1O | > 7.61 | > 50 | 6.57 |
| C#Cc1c(C(N)=O)ncn1[C@@H]1[Se][C@H](CO)[C@@H](O)[C@H]1O |  | > 50 | > 20 |

Source: ChEMBL document CHEMBL4392858, “Synthesis and biological evaluation of novel imidazole nucleosides as potential anti-dengue virus agents” (Bioorg Med Chem, 2019)
